Assay results published in patent US20200214998A1, “Method for Treating a Brain Cancer” (Allianz Pharmascience Ltd., priority 2019, published 2020).

Tested on: U87MG-R
Assay: Orthotopic TMZ-resistant GBM mouse model, intracranial U87MG-R
Conditions: TMZ (15 mg/kg oral) plus vehicle; untreated control 21 days
Experimental: Animal survival was evaluated from the first day of treatment until death.
TMZ-resistant GBM inoculated orthotopic mice were randomly grouped and treated with TMZ or TMZ plus JM17.
Briefly, a skull burr hole was first created in the right frontal brain area. An ultra-fine needle was then inserted to a depth of 3 mm using stereostatic guiding, and 5×10^5 TMZ-resistant cells were injected.
Twenty-eight-week-old nude mice received U87MG-R transplantation. Five days later, these animals were randomized into four treatment groups (7 animals per group), which received TMZ (15 mg/kg) by oral gavage and JM17 by the intravenous injection three times per week (Day 1, 3, 5 of the week) as follows: Control (untreated), TMZ plus vehicle, TMZ plus JM17 (5 mg/kg) and TMZ plus JM17 (20 mg/kg) (FIG. 5).

Cn1nnc2c(C(N)=O)ncn2c1=O [TMZ, temozolomide]
median survival: 20 days
